The results in this text go back to the NIST ThermoML archive (doi:10.1016/j.jct.2004.12.006).

± gives the expanded uncertainty stated by the source.

Series [1] in a line: Molar enthalpy of transition or fusion. To be noted: Crystal; DSC.
The conditions of series [2]: Crystal; DTA.

On to `Cl.Cl.Fc1ccc([C@@H]2CCNC[C@H]2COc2ccc3c(c2)OCO3)cc1.Fc1ccc([C@@H]2CCNC[C@H]2COc2ccc3c(c2)OCO3)cc1.O` [paroxetine hydrochloride hemihydrate], for which the “Molar enthalpy of transition or fusion” value in series [1] is 34 ± 0.7 kJ/mol. For the same compound, the Normal melting temperature in series [2] was 126.7 ± 0.7 °C.
